Measurements: publication PMC12495412, “Coumarin/nitrogen-bearing heterocyclic hybrid-loaded electrospun PMMA/PVP nanofibrous scaffolds for accelerating topical wound healing rates: synthesis and in vitro bio-evaluation” (RSC Advances, 2025)
Marks after values point to notes of the source that are not given here.

Legend:
Assay type in all cases: cell-based
Candida albicans [1] = assay: Biofilm inhibition test (spectrophotometric); settings: 24 h, 37 °C, OD vs untreated
Protocol: (§1) Additionally, a spectrophotometric antibiofilm assay was utilized to determine whether the evaluated formulations might inhibit the growth of pathogens. Fresh nutritional broth was inoculated with each pathogen separately, and this mixture was then incubated at 37 °C at 200 rpm. The optical density (OD) at 600 nm was measured over a 6 h incubation period, allowing for an estimation of the starting microbe's exponential phase (3 × 10^7 CFU mL^−1). To produce treated cultures, 900 μL of planktonic cultures were collected aseptically with 100 μL of each formulation. Furthermore, untreated (formula-free) cultures of pathogens were grown as controls. The cultures were then incubated for 24 hours at 200 rpm and 37 °C. Through spectroscopic evaluation of microbial turbidity, the inhibitory effects of the examined formulations were determined.[27] By comparing the OD of the treated sample with the matching controls, anti-biofilm percentages for each formula were computed.[28]

Salmonella paratyphi [2] = assay: Biofilm inhibition test (spectrophotometric); settings: 24 h, 37 °C, OD vs untreated
Protocol: as §1

Staphylococcus aureus [3] = assay: Biofilm inhibition test (spectrophotometric); settings: 24 h, 37 °C, OD vs untreated
Protocol: as §1

Candida krusei [4] = assay: Biofilm inhibition test (spectrophotometric); settings: 24 h, 37 °C, OD vs untreated
Protocol: as §1

Candida parapsilosis [5] = assay: Biofilm inhibition test (spectrophotometric); settings: 24 h, 37 °C, OD vs untreated
Protocol: as §1

Candida glabrata [6] = assay: Biofilm inhibition test (spectrophotometric); settings: 24 h, 37 °C, OD vs untreated
Protocol: as §1

Bacillus subtilis [7] = assay: Biofilm inhibition test (spectrophotometric); settings: 24 h, 37 °C, OD vs untreated
Protocol: as §1

[8] = test system: Staphylococcus epidermidis; assay: Biofilm inhibition test (spectrophotometric); settings: 24 h, 37 °C, OD vs untreated
Protocol: as §1

Bacillus cereus [9] = assay: Biofilm inhibition test (spectrophotometric); settings: 24 h, 37 °C, OD vs untreated
Protocol: as §1

Escherichia coli [10] = assay: Biofilm inhibition test (spectrophotometric); settings: 24 h, 37 °C, OD vs untreated
Protocol: as §1

Pseudomonas aeruginosa [11] = assay: Biofilm inhibition test (spectrophotometric); settings: 24 h, 37 °C, OD vs untreated
Protocol: as §1

Klebsiella pneumoniae [12] = assay: Biofilm inhibition test (spectrophotometric); settings: 24 h, 37 °C, OD vs untreated
Protocol: as §1

Candida albicans [13] = assay: Agar-well diffusion of formulations; settings: 50 μL per 5 mm well, 37 °C
Protocol: (§2) The antimicrobial qualities of formulations were evaluated in this study using a variety of techniques. The formulations including 8 PMMA and 2 PVP, which contained varying doses of drug A (0.5% = T1, 1% = T2, 3% = T3, and 5% = T4) or drug B (0.5% = T5, 1% = T6, 3% = T7, and 5% = T8), as well as a combination of 2.5% of drug A and 2.5% of drug B (T9) were assessed. The tested human pathogens were cultivated in a nutritional broth medium containing 0.5% peptone, 0.3% yeast extract, 0.2% beef extract, 0.1% glucose, and 0.5% NaCl in accordance with 0.5 McFarland turbidity criteria.[25] To carry out the agar-well diffusion analysis, microbial cultures (100 μL) were spread on nutrient agar plates using sterile cotton swabs. After drilling each well with a sterile cork-borer of 5 mm in diameter, 50 μL of the tested formulations and the control (composed of 8 PMMA and 2 PVP) were loaded. Agar plates were thereafter left to incubate at 37 °C for an entire day. The inhibitory zone that surrounds each well was measured in millimeters (mm) using a ruler.[26]

Salmonella paratyphi [14] = assay: Agar-well diffusion of formulations; settings: 50 μL per 5 mm well, 37 °C
Protocol: as §2

Staphylococcus aureus [15] = assay: Agar-well diffusion of formulations; settings: 50 μL per 5 mm well, 37 °C
Protocol: as §2

Candida krusei [16] = assay: Agar-well diffusion of formulations; settings: 50 μL per 5 mm well, 37 °C
Protocol: as §2

Candida parapsilosis [17] = assay: Agar-well diffusion of formulations; settings: 50 μL per 5 mm well, 37 °C
Protocol: as §2

Candida glabrata [18] = assay: Agar-well diffusion of formulations; settings: 50 μL per 5 mm well, 37 °C
Protocol: as §2

Bacillus subtilis [19] = assay: Agar-well diffusion of formulations; settings: 50 μL per 5 mm well, 37 °C
Protocol: as §2

[20] = test system: Staphylococcus epidermidis; assay: Agar-well diffusion of formulations; settings: 50 μL per 5 mm well, 37 °C
Protocol: as §2

Bacillus cereus [21] = assay: Agar-well diffusion of formulations; settings: 50 μL per 5 mm well, 37 °C
Protocol: as §2

Escherichia coli [22] = assay: Agar-well diffusion of formulations; settings: 50 μL per 5 mm well, 37 °C
Protocol: as §2

Pseudomonas aeruginosa [23] = assay: Agar-well diffusion of formulations; settings: 50 μL per 5 mm well, 37 °C
Protocol: as §2

Klebsiella pneumoniae [24] = assay: Agar-well diffusion of formulations; settings: 50 μL per 5 mm well, 37 °C
Protocol: as §2

[25] = test system: multidrug-resistant human pathogens; assay: Agar-well diffusion of formulations, whole panel; settings: all human pathogens investigated
Protocol: as §2

In the case of O=C(Nc1ccc(Nc2c3ccccc3nc3ccccc23)cc1)c1cc2ccccc2oc1=O [Compound C3], the Biofilm reduction (Candida albicans [1]) is reported as 27.13 ± 3.96^h %, the Biofilm reduction (Salmonella paratyphi [2]) is reported as 22.55 ± 1.87^h % and the Biofilm reduction (Staphylococcus aureus [3]) is reported as 31.25 ± 2.98^h %. The Biofilm reduction (Candida krusei [4]) was 29.91 ± 2.44^h %, the Biofilm reduction (Candida parapsilosis [5]) was 25.79 ± 1.98^h % and the Biofilm reduction (Candida glabrata [6]) was 35.48 ± 2.58^h %. The Biofilm reduction (Bacillus subtilis [7]) was 37.29 ± 2.84^h %, the Biofilm reduction [8] was 34.71 ± 1.56^h % and the Biofilm reduction (Bacillus cereus [9]) was 23.36 ± 2.96^h %. For the same compound, the Biofilm reduction (Escherichia coli [10]) was 20.93 ± 3.64^h %, the Biofilm reduction (Pseudomonas aeruginosa [11]) was 22.35 ± 2.58^h % and the Biofilm reduction (Klebsiella pneumoniae [12]) was 20.56 ± 2.65^h %. The Inhibition zone diameters (Candida albicans [13]) was 9.29 ± 1.25^fg mm, the Inhibition zone diameters (Salmonella paratyphi [14]) was 0 mm and the Inhibition zone diameters (Staphylococcus aureus [15]) was 0 mm. For the same compound, the Inhibition zone diameters (Candida krusei [16]) was 0 mm, the Inhibition zone diameters (Candida parapsilosis [17]) was 7.25 ± 2.33^fg mm and the Inhibition zone diameters (Candida glabrata [18]) was 0 mm. For the same compound, the Inhibition zone diameters (Bacillus subtilis [19]) was 0 mm, the Inhibition zone diameters [20] was 0 mm and the Inhibition zone diameters (Bacillus cereus [21]) was 0 mm. For the same compound, the Inhibition zone diameters (Escherichia coli [22]) was 0 mm, the Inhibition zone diameters (Pseudomonas aeruginosa [23]) was 0 mm and the Inhibition zone diameters (Klebsiella pneumoniae [24]) was 0 mm. The “Antimicrobial effect” value [25] was “only has an impact on a few examined yeast infections”.
